Laboratory results: EP0489581A2, “Cosmetic composition” (UNILEVER PLC, priority 1990, dated 1992)

Test system: hair growth
Test: Observation of hair growth with ethyl nicotinate in a shampoo
Type: in vivo
Settings: included in a shampoo, in the absence of any other hair growth promoter

CCOC(=O)c1cccnc1 [EtNic, ethyl nicotinate]
hair growth: promote hair growth
